Assay results taken from PMC9849758, “Chemically diverse activity-based probes with unexpected inhibitory mechanisms targeting trypsin-like serine proteases” (Frontiers in Chemistry, 2023).
Structures can show the parent of a compound that is named as a salt.

Key:
Format in all cases: biochemical
uPA [1] = target: T1, uPA (Homo sapiens, UniProt P00749); assay: Kinetic progress curves (kapp, mechanism); details: for uPA kapp: apparent second-order rate constant from progress curves, mean ± SD; for uPA mechanism of inhibition: defined by the progress curves: slow-binding (Rev.) or irreversible (Irrev.)
T1 construct: purchased HYPHEN BioMed
Protocol: (§1) Because the compounds described in this paper were previously described as irreversible inhibitors, the IC50 value is inversely correlated with the second-order rate constant of inactivation. For a simple pseudo-first-order inactivation process, the activity after incubation with inhibitor (vi) varies with the inhibitor concentration (i), as described in the following equation: vi=v0·e^−kit where v0 is the activity in the absence of an inhibitor, k is the second-order rate constant of inactivation, and t is the time. The inactivation rate constant was determined from the time course of inhibition.
(§2) Kinetic assays were performed in the following manner. The inhibitor was mixed with the substrate, and the buffer solution with the enzyme was added at the time zero. The progress curves show the release of pNA or AMC as a function of time. Initially, no inhibitor is bound to the enzyme, and the tangent to the progress curve (dA/dt) is proportional to the free enzyme concentration. The free enzyme concentration decreases over time due to inhibitor binding kinetics, as described above. Progress curves were recorded in pseudo-first-order conditions ([I]0>>[E]0) and with less than 10% conversion of the substrate during the entire time course. In these conditions, dA/dt decreases exponentially with time. The progress curves were fitted with the integrated rate equation with GraFit7 to yield a value for kobs, a pseudo-first-order rate constant. At=Ao+vs∙t+vi−vs∙1−e^−kobs∙t/kobs where At is the absorbance at time t, A0 is the absorbance at time zero, vi is the initial rate and vs is the velocity at the steady-state.
(§3) The apparent second-order rate constant (kapp) was calculated from the slope of the linear part of the plot of kobs vs. the inhibitor concentration ([I]0). In the case of competition between the inhibitor and the substrate, kapp is smaller than the “real” second-order rate constant k discussed above because a certain fraction of the enzyme is present as an enzyme-substrate complex. kapp depends on the substrate concentration used in the experiment, as described by [Lambeir et al. (1996)].
(§4) The apparent equilibrium constants were obtained from the following equations, vi/vo=1/1+I/K1; vS/vo=1/1+I/KI* where vi is the initial rate, vs is the steady-state velocity and vo is the uninhibited initial rate.

β-tryptase = β-tryptase (Homo sapiens, UniProt P20231); assay: Jump dilution, determination of inhibition type; set-up: purchased EnzoLife Sciences; details: inhibitor at 10 times IC50, 15 min, diluted 10-fold or 100-fold; Rev./Irrev.
Protocol: (§5) The dissociation of the enzyme-inhibitor complex was monitored by substrate hydrolysis over time ([Joossens et al., 2006]).
(§6) Because ABPs are designed to be irreversible serine protease inhibitors, the IC50 is exclusively used as a first discriminatory evaluation. When an inhibitor is irreversible, its IC50 value not only depends on the substrate and enzyme concentration but also on the time of incubation with the enzyme before the reaction is started by adding the substrate. […] The progress curve in the presence of an irreversible inhibitor will show final velocities equal to zero (Figure 6C). In contrast, for a reversible inhibitor, progress curves have a non-zero final steady-state velocity (Figure 6A) ([McWhirter, 2021]). To corroborate the inhibitory mechanism of the compounds, jump-dilution assays were performed. These use an inhibitor concentration of 10-fold the IC50 for the incubation, and a posteriori, the reaction mixture is diluted 10-fold or 100-fold before adding the substrate. In the case of an irreversible inhibitor, enzymatic activity is not regained (Figure 6D), whereas, in the case of a reversible compound, a slow release of the inhibitor and a gradual increase of the enzymatic activity rate is observed (Figure 6B) ([Copeland, 2013]; [McWhirter, 2021]). The jump-dilution assays confirmed the behavior described by the progress curves.
(§7) 2.2.2 Jump dilution results
(§8) Supplementary Table 2. Jump dilution of selected alkyne and desthiobiotin probes against a panel of trypsin-like serine proteases. […]
(§9) # R R DtBa 3 tryptase Thrombin uPA CatG
(§10) 32b H Alk Irrev. Irrev. Rev. Irrev. Rev.
(§11) 45b DtB Irrev. Irrev. Rev. N.D. N.D.
(§12) 33b Alk Irrev. Irrev. Rev. Irrev. Rev.
(§13) 46b Cl DtB Irrev. Irrev. Rev. N.D. N.D.
(§14) 34b H Alk Rev. Rev. Rev. Irrev. Rev.
(§15) 50b DtB Rev. Rev. Rev. Irrev. Rev.
(§16) 35b Alk Rev. Rev. Rev. Irrev. Rev.
(§17) 52b NHCOMe DtB Rev. Rev. Rev. Irrev. Rev.
(§18) 36b Alk Rev. Rev. Rev. Irrev. Rev.
(§19) 54b Cl DtB Rev. Rev. Rev. Irrev. Rev.
(§20) 37b Alk Irrev. Irrev. N.D. Irrev. Irrev.
(§21) 55b H DtB Irrev. Irrev. N.D. Irrev. Irrev.
(§22) 38b Alk Irrev. Irrev. N.D. Irrev. Irrev.
(§23) 56b NHCOMe DtB Irrev. Irrev. N.D. Irrev. Irrev.
(§24) 39b Alk Irrev. Irrev. N.D. Irrev. Rev.
(§25) 57b Cl DtB Irrev. Irrev. N.D. Irrev. Rev.
(§26) 41b H Alk Irrev. Irrev. Irrev. N.D. N.D.
(§27) 31b Pro-Lys H Alk Irrev. Irrev. Irrev. Irrev. N.D. a Alk: ABP precursor bearing an alkyne; DtB: desthiobiotin probe b Panel of serine proteases abbreviations: urokinase plasminogen activator (uPA), cathepsin G (catG) N.D.: IC50 is greater than 10µM, and jump dilution was not performed
(§28) 2.2.3 Progress curves and Jump dilution experiments
(§29) Kinetic assays were performed in the following manner. The inhibitor was mixed with the substrate, and the buffer solution with the enzyme was added at the time zero. The progress curves show the release of para-nitroaniline (pNA) or 7-amino-4-methyl coumarin (AMC) as a function of time.
(§30) To monitor the dissociation of the inhibitor-enzyme, aliquots of the enzyme were incubated at 37 °C without and with the inhibitor at a concentration 10 times higher than its IC 50. The enzyme […]
(§31) min, the aliquots were diluted 10-fold or 100-fold into the substrate concentration and assay buffer used for the IC50 determination. The dissociation of the enzyme-inhibitor complex was monitored by substrate hydrolysis over time. Blue lines represent the control where no inhibitor was present. Pink lines represent the assay with inhibitor.

uPA [2] = target: T1, uPA; assay: Jump dilution, determination of inhibition type; details: inhibitor at 10 times IC50, 15 min, diluted 10-fold or 100-fold; Rev./Irrev.
Protocol: as §5, §6, §7, §8, §9, §10, §11, §12, §13, §14, §15, §16, §17, §18, §19, §20, §21, §22, §23, §24, §25, §26, §27, §28, §29, §30, §31

Thrombin = target: T2, Thrombin (Homo sapiens, UniProt P00734); assay: Kinetic progress curves (kapp, K1, KI*, mechanism); details: for Ki / Thrombin kapp: mean ± SD; for Thrombin kapp: apparent second-order rate constant from progress curves; for Thrombin mechanism of inhibition: defined by the progress curves: slow-binding (Rev.) or irreversible (Irrev.)
T2 construct: purchased R&D
Protocol: as §1, §2, §3, §4

[3] = Thrombin KI*, apparent equilibrium constant of the overall process

Sequence of β-tryptase (P20231 31-275): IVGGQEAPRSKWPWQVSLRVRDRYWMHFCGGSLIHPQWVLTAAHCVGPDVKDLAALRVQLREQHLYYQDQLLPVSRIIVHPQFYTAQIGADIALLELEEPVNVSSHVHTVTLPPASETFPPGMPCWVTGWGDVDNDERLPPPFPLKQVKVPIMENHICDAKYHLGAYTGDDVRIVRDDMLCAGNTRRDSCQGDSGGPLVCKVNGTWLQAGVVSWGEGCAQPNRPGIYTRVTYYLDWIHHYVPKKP

In the case of `C#CCCCOC(=O)NC(Cc1ccc(NC(=N)N)cc1)P(=O)(Oc1ccc(Cl)cc1)Oc1ccc(Cl)cc1` (stereo not shown) [36b], the uPA kapp (uPA [1]) is reported as 320000 ± 29000 M⁻¹ s⁻¹, the “uPA mechanism of inhibition” value (uPA [1]) is reported as “Irrev” and the “β-tryptase jump dilution result” value (β-tryptase) is reported as “Rev”. The “uPA jump dilution result” value (uPA [2]) was “Irrev”, the Ki (Thrombin; Thrombin K1, apparent equilibrium constant of the first step of slow-binding) was 9030 ± 500 nM and the Ki (Thrombin; [3]) was 30 ± 2 nM. For the same compound, the Thrombin kapp (Thrombin) was 251 ± 16 M⁻¹ s⁻¹ and the “Thrombin mechanism of inhibition” value (Thrombin) was “Rev”.
With `C[C@@H]1NC(=O)N[C@@H]1CCCCCC(=O)NCCOCCOCCOCCn1cc(CCCOC(=O)NC(Cc2ccc(NC(=N)N)cc2)P(=O)(Oc2ccccc2)Oc2ccccc2)nn1` (stereo partly drawn) [50b, 3-(1-(18-((4R,5S)-5-methyl-2-oxoimidazolidin-4-yl)-13-oxo-3,6,9-trioxa-12-azaoctadecyl)-1H-1,2,3-triazol-4-yl)propyl (1-(diphenoxyphosphoryl)-2-(4-guanidinophenyl)ethyl)carbamate trifluoroacetate salt] the uPA kapp (uPA [1]) was 33000 ± 12000 M⁻¹ s⁻¹, the “uPA mechanism of inhibition” value (uPA [1]) was “Irrev” and the “β-tryptase jump dilution result” value (β-tryptase) was “Rev”. The “uPA jump dilution result” value (uPA [2]) was “Irrev”, the Ki (Thrombin; [3]) was 1550 ± 250 nM and the Thrombin kapp (Thrombin) was 47 ± 5 M⁻¹ s⁻¹. The “Thrombin mechanism of inhibition” value (Thrombin) was “Rev”.
In the case of `CC(=O)Nc1ccc(OP(=O)(Oc2ccc(NC(C)=O)cc2)C(Cc2ccc(NC(=N)N)cc2)NC(=O)OCCCc2cn(CCOCCOCCOCCNC(=O)CCCCC[C@H]3NC(=O)N[C@H]3C)nn2)cc1` (stereo partly shown) [52b], the uPA kapp (uPA [1]) is reported as 38 × 10^3 ± 4175 M^−1 s^−1, the “uPA mechanism of inhibition” value (uPA [1]) is reported as “Irrev” and the “β-tryptase jump dilution result” value (β-tryptase) is reported as “Rev. and Reversible”. The “uPA jump dilution result” value (uPA [2]) was “Irrev”, the Ki (Thrombin; [3]) was 620 ± 80 nM and the Thrombin kapp (Thrombin) was 49 ± 5 M⁻¹ s⁻¹. The “Thrombin mechanism of inhibition” value (Thrombin) was “Rev”.
With `C[C@@H]1NC(=O)N[C@@H]1CCCCCC(=O)NCCOCCOCCOCCn1cc(CCCOC(=O)NC(Cc2ccc(NC(=N)N)cc2)P(=O)(Oc2ccc(Cl)cc2)Oc2ccc(Cl)cc2)nn1` (stereo partly shown) [54b] the uPA kapp (uPA [1]) was 230000 ± 36000 M⁻¹ s⁻¹, the “uPA mechanism of inhibition” value (uPA [1]) was “Irrev” and the “β-tryptase jump dilution result” value (β-tryptase) was “Rev”. For the same compound, the “uPA jump dilution result” value (uPA [2]) was “Irrev”, the Ki (Thrombin; [3]) was 60 ± 6 nM and the “Thrombin mechanism of inhibition” value (Thrombin) was “* ^d Rev”.
